This note sets out measurements from ChEMBL document CHEMBL1151182, “Phytochemical and larvicidal studies on Stemona curtisii: structure of a new pyrido[1,2-a]azepine Stemona alkaloid” (2004).

Values after ≈ are worked out from the molar mass of the structure shown.

For the test, the system named is Anopheles minimus. The experiment in a line: Larvicidal activity in Anopheles minimus HO by WHO method. It counts as functional.
Compound `COC1=C(C)C(=O)O/C1=C1\O[C@]23CCCN4[C@H]([C@@H]5C[C@H](C)C(=O)O5)[C@H](C[C@H]4[C@H]2[C@@H]1C)O3` [OXYPROTOSTEMONINE] registered a median lethal concentration (LC50) of 4 µg/mL (≈ 9.27 µM).
As for `COC1=C(C)C(=O)O/C1=C1\O[C@@]23CCCN4CCC[C@H](O2)[C@H]4[C@H]3[C@@H]1C` [STEMOCURTISINE], the figure is 18 µg/mL (≈ 51.8 µM); as for `CC[C@H](O)[C@@H]1CC[C@@H]2O[C@@]34CCCN1[C@@H]2[C@H]3[C@H](C)/C(=C1/OC(=O)C(C)=C1OC)O4` [STEMOCURTISINOL], 39 µg/mL (≈ 96.2 µM).

In general, LC50 refers to the concentration that kills 50% of the test population. The low end stands for greater toxicity, the high end for lower toxicity.
